Data taken from ChEMBL document CHEMBL5303573, “Mapping human microbiome drug metabolism by gut bacteria and their genes” (Nature, 2019).

How the values were obtained:
[1] = The drug is tested on Clostridium ramosum strain: DSM1402 for biotransformation. The drug concentrations were measured before and after a 12-h incubation by liquid-chromatography-coupled mass spectrometry (LC–MS); settings: thomasclavelia ramosa, 2 µM
[2] = bifidobacterium adolescentis, 12 h, 2 µM
Description: The drug is tested on Bifidobacterium adolescentis strain: ATCC 15703 for biotransformation. The drug concentrations were measured before and after a 12-h incubation by liquid-chromatography-coupled mass spectrometry (LC–MS)

[3] = bacteroides thetaiotaomicron, 12 h, 2 µM
Description: The drug is tested on Bacteroides thetaiotaomicron strain: 3731 for biotransformation. The drug concentrations were measured before and after a 12-h incubation by liquid-chromatography-coupled mass spectrometry (LC–MS)

[4] = The drug is tested on Clostridium scindens strain: ATCC35704 for biotransformation. The drug concentrations were measured before and after a 12-h incubation by liquid-chromatography-coupled mass spectrometry (LC–MS); settings: 2 µM
[5] = The drug is tested on Bacteroides coprophilus strain: DSM18228 for biotransformation. The drug concentrations were measured before and after a 12-h incubation by liquid-chromatography-coupled mass spectrometry (LC–MS); settings: 2 µM
[6] = parabacteroides johnsonii, 12 h, 2 µM
Description: The drug is tested on Parabacteroides johnsonii strain: DSM18315 for biotransformation. The drug concentrations were measured before and after a 12-h incubation by liquid-chromatography-coupled mass spectrometry (LC–MS)

[7] = The drug is tested on Parabacteroides merdae strain: ATCC43184 for biotransformation. The drug concentrations were measured before and after a 12-h incubation by liquid-chromatography-coupled mass spectrometry (LC–MS); settings: 2 µM
[8] = bacteroides fragilis, 12 h, 2 µM
Description: The drug is tested on Bacteroides fragilis strain: NCTC 9343 for biotransformation. The drug concentrations were measured before and after a 12-h incubation by liquid-chromatography-coupled mass spectrometry (LC–MS)

[9] = The drug is tested on Escherichia coli strain: BW25113 for biotransformation. The drug concentrations were measured before and after a 12-h incubation by liquid-chromatography-coupled mass spectrometry (LC–MS); settings: 2 µM
[10] = The drug is tested on Ruminococcus lactaris strain: ATCC29176 for biotransformation. The drug concentrations were measured before and after a 12-h incubation by liquid-chromatography-coupled mass spectrometry (LC–MS); settings: 2 µM
[11] = The drug is tested on Eubacterium ventriosum strain: ATCC27560 for biotransformation. The drug concentrations were measured before and after a 12-h incubation by liquid-chromatography-coupled mass spectrometry (LC–MS); format: ADME; parameters: dose 2 uM, timepoint 0 vs 12 hours; settings: 2 µM
[12] = The drug is tested on Eubacterium hallii strain: DSM3353 for biotransformation. The drug concentrations were measured before and after a 12-h incubation by liquid-chromatography-coupled mass spectrometry (LC–MS); settings: anaerobutyricum hallii, 2 µM
[13] = The drug is tested on Bacteroides fragilis strain: ATCC43859 for biotransformation. The drug concentrations were measured before and after a 12-h incubation by liquid-chromatography-coupled mass spectrometry (LC–MS); settings: 2 µM
[14] = The drug is tested on Providencia stuartii strain: ATCC25827 for biotransformation. The drug concentrations were measured before and after a 12-h incubation by liquid-chromatography-coupled mass spectrometry (LC–MS); settings: 2 µM
[15] = The drug is tested on Collinsella aerofaciens strain: ATCC25986 for biotransformation. The drug concentrations were measured before and after a 12-h incubation by liquid-chromatography-coupled mass spectrometry (LC–MS); settings: 2 µM
[16] = The drug is tested on Alistipes indistinctus strain: DSM22520 for biotransformation. The drug concentrations were measured before and after a 12-h incubation by liquid-chromatography-coupled mass spectrometry (LC–MS); settings: 2 µM
[17] = The drug is tested on Ruminococcus gnavus strain: ATCC29149 for biotransformation. The drug concentrations were measured before and after a 12-h incubation by liquid-chromatography-coupled mass spectrometry (LC–MS); settings: mediterraneibacter gnavus, 2 µM
[18] = The drug is tested on Enterococcus faecalis strain: V583 for biotransformation. The drug concentrations were measured before and after a 12-h incubation by liquid-chromatography-coupled mass spectrometry (LC–MS); settings: 2 µM
[19] = enterocloster bolteae, 12 h, 2 µM
Description: The drug is tested on Clostridium bolteae strain: ATCCBAA-613 for biotransformation. The drug concentrations were measured before and after a 12-h incubation by liquid-chromatography-coupled mass spectrometry (LC–MS)

[20] = The drug is tested on Clostridium sporogenes strain: ATCC15579 for biotransformation. The drug concentrations were measured before and after a 12-h incubation by liquid-chromatography-coupled mass spectrometry (LC–MS); settings: 2 µM

SMILES | Bacterial Biotransformation [1] | Bacterial Biotransformation [2] | Bacterial Biotransformation [3] | Bacterial Biotransformation [4] | Bacterial Biotransformation [5] | Bacterial Biotransformation [6] | Bacterial Biotransformation [7] | Bacterial Biotransformation [8] | Bacterial Biotransformation [9] | Bacterial Biotransformation [10] | Bacterial Biotransformation [11] | Bacterial Biotransformation [12] | Bacterial Biotransformation [13] | Bacterial Biotransformation [14] | Bacterial Biotransformation [15] | Bacterial Biotransformation [16] | Bacterial Biotransformation [17] | Bacterial Biotransformation [18] | Bacterial Biotransformation [19] | Bacterial Biotransformation [20]
COc1cc2nc(N3CCN(C(=O)C4COc5ccccc5O4)CC3)nc(N)c2cc1OC.CS(=O)(=O)O (configuration not stated) [DOXAZOSIN MESYLATE] | Compound NOT metabolized | Compound NOT metabolized | Compound NOT metabolized | Compound NOT metabolized | Compound NOT metabolized | Compound NOT metabolized | Compound NOT metabolized | Compound NOT metabolized | Compound metabolized | Compound NOT metabolized | Compound NOT metabolized | Compound NOT metabolized | Compound NOT metabolized | Compound NOT metabolized | Compound NOT metabolized | Compound metabolized | Compound NOT metabolized | Compound NOT metabolized | – | –
O=C(Nc1ccccc1)OCC(CN1CCCCC1)OC(=O)Nc1ccccc1 (configuration not stated) [DIPERODON] | Compound NOT metabolized | Compound NOT metabolized | Compound NOT metabolized | Compound NOT metabolized | Compound NOT metabolized | – | Compound NOT metabolized | Compound NOT metabolized | Compound NOT metabolized | Compound NOT metabolized | Compound NOT metabolized | Compound NOT metabolized | Compound NOT metabolized | Compound NOT metabolized | Compound NOT metabolized | Compound NOT metabolized | Compound NOT metabolized | Compound NOT metabolized | Compound NOT metabolized | Compound NOT metabolized
CC(C)[C@H]1CC[C@H](C(=O)N[C@H](Cc2ccccc2)C(=O)O)CC1 [NATEGLINIDE] | Compound NOT metabolized | Compound NOT metabolized | Compound NOT metabolized | Compound NOT metabolized | Compound NOT metabolized | – | Compound NOT metabolized | – | Compound NOT metabolized | Compound NOT metabolized | Compound NOT metabolized | Compound NOT metabolized | Compound metabolized | Compound NOT metabolized | Compound NOT metabolized | Compound NOT metabolized | Compound NOT metabolized | Compound NOT metabolized | Compound NOT metabolized | Compound NOT metabolized
Fc1ccc([C@@H]2CCNC[C@H]2COc2ccc3c(c2)OCO3)cc1 [PAROXETINE] | Compound NOT metabolized | Compound NOT metabolized | Compound metabolized | Compound NOT metabolized | Compound NOT metabolized | Compound metabolized | Compound NOT metabolized | Compound NOT metabolized | Compound NOT metabolized | Compound NOT metabolized | Compound NOT metabolized | Compound NOT metabolized | Compound NOT metabolized | Compound NOT metabolized | Compound NOT metabolized | Compound NOT metabolized | Compound NOT metabolized | Compound NOT metabolized | Compound metabolized | –
CC(=O)O[C@]1(C(C)=O)CC[C@H]2[C@@H]3C=C(C)C4=CC(=O)CC[C@]4(C)[C@H]3CC[C@@]21C [MEGESTROL ACETATE] | Compound NOT metabolized | Compound metabolized | Compound metabolized | Compound metabolized | Compound NOT metabolized | Compound metabolized | Compound metabolized | Compound metabolized | Compound metabolized | Compound NOT metabolized | Compound NOT metabolized | Compound NOT metabolized | Compound metabolized | Compound metabolized | Compound metabolized | Compound metabolized | Compound NOT metabolized | Compound NOT metabolized | Compound NOT metabolized | –
C#C[C@]1(OC(C)=O)CC[C@H]2[C@@H]3CCC4=C/C(=N/O)CC[C@@H]4[C@H]3CC[C@@]21CC [NORGESTIMATE] | Compound NOT metabolized | Compound NOT metabolized | Compound NOT metabolized | Compound NOT metabolized | Compound NOT metabolized | Compound metabolized | Compound NOT metabolized | Compound NOT metabolized | Compound NOT metabolized | Compound NOT metabolized | Compound NOT metabolized | Compound NOT metabolized | Compound NOT metabolized | Compound NOT metabolized | Compound NOT metabolized | Compound NOT metabolized | Compound NOT metabolized | Compound NOT metabolized | Compound NOT metabolized | –
Br.COc1ccc2c(c1)[C@]13CCCC[C@@H]1[C@H](C2)N(C)CC3.O [DEXTROMETHORPHAN HYDROBROMIDE] | Compound NOT metabolized | Compound NOT metabolized | – | Compound NOT metabolized | Compound NOT metabolized | – | Compound NOT metabolized | Compound NOT metabolized | Compound NOT metabolized | Compound NOT metabolized | Compound NOT metabolized | Compound NOT metabolized | Compound NOT metabolized | Compound NOT metabolized | Compound NOT metabolized | Compound NOT metabolized | Compound NOT metabolized | Compound NOT metabolized | Compound NOT metabolized | Compound NOT metabolized
COc1ccccc1OCC(O)COC(N)=O (configuration not stated) [METHOCARBAMOL] | Compound NOT metabolized | Compound NOT metabolized | Compound NOT metabolized | – | Compound NOT metabolized | Compound NOT metabolized | Compound NOT metabolized | Compound NOT metabolized | – | – | Compound NOT metabolized | Compound NOT metabolized | Compound NOT metabolized | Compound NOT metabolized | Compound NOT metabolized | Compound NOT metabolized | Compound NOT metabolized | Compound NOT metabolized | Compound NOT metabolized | Compound NOT metabolized
